Data set [1] is described as follows: storage stability in solution. In kind it is physicochemical. The conditions noted are these: dilute solution, under these conditions (4° C.).
For data set [2], the target named is T1, carbonic anhydrase from bovine erythrocytes (Bos taurus, UniProt P00921).
T1 construct: purchased Sigma C-7500; host or cells: bovine erythrocytes
Put plainly: binding of dansylamide to the zinc-containing carbonic anhydrase active site (fluorescence titration). The conditions noted are these: binding site when zinc is present there. The protocol: N,N-dimethyl-1-aminonaphthalene-8-sulfonamide (dansylamide) was from Aldrich, HEPES (Ultrapure grade) was from Baker, and other buffer salts were reagent grade or better. […] Following passage through the chelating resin, solutions were stored in clean polyethylene containers and pipetted using plastic pipets or metal-free pipet tips; fluorescence was measured in cuvettes made of synthetic fused silica. Carbonic anhydrase from bovine erythrocytes (Sigma C-7500) was stripped of its Zn atom by prolonged dialysis at 4 C. in 50 mM sodium acetate pH 5.4 buffer containing approximately 5 mM 2,6-dipicolinic acid (Aldrich). […]
Fluorescence emission spectra and emission intensities in cuvettes were measured on a modified ISS K2 fluorometer 60 (Champaign, Ill.) using a Liconix 4114NB laser 36 emitting approximately 5 mW multimode at 326n m for excitation. […] For some measurements through the fiber the off-axis paraboloid, objective lens, and fiber holder were mounted in the ISS fluorometer in place of the cuvette holder, as described elsewhere (Thompson, R. B., Lakowicz, J. R., Anal. Chem 65 853-57 (1993)); in these experiments the chopper and lock-in were not used and the DC output of the Hamamatsu R928 photodetector was directly quantitated on the instrument's digital voltmeter after amplification. […]

Another data set has as its system carbonic anhydrase. The conditions noted are these: observed by Chen titrating the enzyme with dansylamide; cited from earlier work.

T1 sequence (P00921 2-260 limits assumed): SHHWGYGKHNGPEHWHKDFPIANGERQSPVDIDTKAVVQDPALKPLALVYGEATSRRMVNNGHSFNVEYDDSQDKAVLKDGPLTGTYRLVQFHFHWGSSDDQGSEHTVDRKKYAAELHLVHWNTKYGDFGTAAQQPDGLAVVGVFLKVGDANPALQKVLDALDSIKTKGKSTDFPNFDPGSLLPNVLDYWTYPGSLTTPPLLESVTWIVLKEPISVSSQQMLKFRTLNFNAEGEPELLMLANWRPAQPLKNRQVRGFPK

For orientation: Kd means the equilibrium constant for the complex coming apart. A lower Kd goes with a tighter complex. In the case of `CN(C)c1cccc2c(S(N)(=O)=O)cccc12` [dansylamide], the stability result in data set [1] is recorded as “not stable for more than a week”. Moreover, in data set [2], the Kd was 240 nM. The fluorescence enhancement with carbonic anhydrase was 15 fold.
